The term Dmax denotes the greatest extent of degradation seen. Low readings indicate a partial loss of target, high ones a fuller loss of target. For orientation: DC50 means the concentration giving 50% degradation. A lower DC50 goes with degradation at low concentration.

15 molecules from patent publication US12139492B2 (Endotarget Inc., priority 2021, dated 2024) can be followed below.

Experiment [1] deals with Mino cells. The experiment can be described thus: Antiproliferative effect, MTS cell viability assay, Mino cells. Particulars: Homo sapiens, MINO, Mino mantle cell lymphoma cells; read-out: IC50 (anti-proliferation) Mino cells. It is filed as cell-based. The gist of the method:
(§1)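 Mino and JeKo-1 mantle B-cell lymphoma lines were exposed to compound at 0, 0.001, 0.01, 0.1, 1 and 10 μM for 72 h. Viability was read by MTS reduction to formazan, measured as absorbance at 490 nm.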

In experiment [2] the test system is JeKo-1 cells. Nature of the experiment: Antiproliferative effect, MTS cell viability assay, JeKo-1 cells. Format: cell-based. Particulars: Homo sapiens; JeKo-1 mantle cell lymphoma cells; read-out: IC50 (anti-proliferation) JeKO-1 cells. The gist of the method:
as §1
For orientation: Tetrazolium assays rely on reduction of a dye to a coloured formazan, in cell work by metabolically active cells.

Experiment [3] deals with BTK (Homo sapiens, UniProt Q06187). The experiment can be described thus: Degradation of BTK protein in Namalwa cells (Western blot; DC50, Dmax). As to conditions: for DC50: BTK degradation, cell line not given. For orientation: A western blot detects proteins with antibodies after separation by electrophoresis.
Sequence of BTK (Q06187 whole entry): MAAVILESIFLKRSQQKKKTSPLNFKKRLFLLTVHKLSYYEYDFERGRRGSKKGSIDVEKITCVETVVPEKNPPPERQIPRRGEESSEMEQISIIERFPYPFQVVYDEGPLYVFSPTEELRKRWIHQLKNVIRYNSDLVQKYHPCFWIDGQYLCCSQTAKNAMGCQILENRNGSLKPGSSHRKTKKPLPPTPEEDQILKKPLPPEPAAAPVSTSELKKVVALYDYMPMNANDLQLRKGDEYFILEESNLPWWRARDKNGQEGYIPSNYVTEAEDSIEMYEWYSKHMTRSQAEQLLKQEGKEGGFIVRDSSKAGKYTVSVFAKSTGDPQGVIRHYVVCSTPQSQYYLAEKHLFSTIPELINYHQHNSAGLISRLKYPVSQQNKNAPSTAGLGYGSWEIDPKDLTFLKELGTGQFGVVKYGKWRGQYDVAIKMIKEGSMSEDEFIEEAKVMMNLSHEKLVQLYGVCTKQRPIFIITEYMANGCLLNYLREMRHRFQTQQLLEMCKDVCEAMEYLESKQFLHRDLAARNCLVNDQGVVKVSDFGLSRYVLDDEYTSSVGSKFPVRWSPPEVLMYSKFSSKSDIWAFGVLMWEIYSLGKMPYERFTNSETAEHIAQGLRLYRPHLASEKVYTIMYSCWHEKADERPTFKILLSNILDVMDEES

As for `Nc1ncnc2c1c(-c1ccc(Oc3ccccc3)cc1)nn2C1CCN(C2CCN(C(=O)N3CCN(CCCC4CCN(c5ccc6c(c5)CN(C5CCC(=O)NC5=O)C6=O)CC4)CC3)CC2)CC1` (stereo not drawn) [Compound 260, 3-(5-(4-(3-(4-(4-(4-amino-3-(4-phenoxyphenyl)-1H-pyrazolo[3,4-d]pyrimidin-1-yl)-[1,4′-bipiperidine]-1′-carbonyl)piperazin-1-yl)propyl)piperidin-1-yl)-1-oxoisoindolin-2-yl)piperidine-2,6-dione], the IC50 in experiment [1] lay within 1000 to 10000 nM. The IC50 in experiment [2] is 1000 to 10000 nM. For the same molecule, in experiment [3], the Dmax is greater than 75% and the DC50 was 10 to 50 nM.

For the molecule `Nc1ncnc2c1c(-c1ccc(Oc3ccccc3)cc1)nn2C1CCN(C2CCN(C(=O)N3CCN(CCCN4CCC(c5ccc6c(c5)C(=O)N(C5CCC(=O)NC5=O)C6=O)CC4)CC3)CC2)CC1` (stereo not drawn) [Compound 261, 5-(1-(3-(4-(4-(4-amino-3-(4-phenoxyphenyl)-1H-pyrazolo[3,4-d]pyrimidin-1-yl)-[1,4′-bipiperidine]-1′-carbonyl)piperazin-1-yl)propyl)piperidin-4-yl)-2-(2,6-dioxopiperidin-3-yl)isoindoline-1,3-dione], the IC50 in experiment [1] is greater than 10000 nM. Also, the IC50 in experiment [2] was in the range of 1000 to 10000 nM. In experiment [3], the Dmax was greater than 90% and the half-maximal degradation concentration (DC50) fell in the range of 10 to 50 nM.

Turning to `Nc1ncnc2c1c(-c1ccc(Oc3ccccc3)cc1)nn2C1CCN(C2CCN(C(=O)N3CCN(CCCN4CCC(c5ccc6c(c5)CN(C5CCC(=O)NC5=O)C6=O)CC4)CC3)CC2)CC1` (stereo not drawn) [Compound 262, 3-(5-(1-(3-(4-(4-(4-amino-3-(4-phenoxyphenyl)-1H-pyrazolo[3,4-d]pyrimidin-1-yl)-[1,4′-bipiperidine]-1′-carbonyl)piperazin-1-yl)propyl)piperidin-4-yl)-1-oxoisoindolin-2-yl)piperidine-2,6-dione], the IC50 in experiment [1] is greater than 10000 nM; in experiment [2] it was 1000 to 10000 nM. This molecule also returned a maximal degradation (Dmax) in experiment [3] greater than 75%. In addition, the DC50 in experiment [3] was greater than 50 nM.

Turning to `Nc1ncnc2c1c(-c1ccc(Oc3ccccc3)cc1)nn2C1CCN(C2CCN(C(=O)N3CCC(CCCN4CCN(c5ccc6c(c5)C(=O)N(C5CCC(=O)NC5=O)C6=O)CC4)CC3)CC2)CC1` (stereo not drawn) [Compound 263, 5-(4-(3-(1-(4-(4-amino-3-(4-phenoxyphenyl)-1H-pyrazolo[3,4-d]pyrimidin-1-yl)-[1,4′-bipiperidine]-1′-carbonyl)piperidin-4-yl)propyl)piperazin-1-yl)-2-(2,6-dioxopiperidin-3-yl)isoindoline-1,3-dione], the IC50 in experiment [1] lay within 1000 to 10000 nM. In addition, the IC50 in experiment [2] is greater than 10000 nM. In experiment [3], this molecule came in with a Dmax greater than 90% and a DC50 of 10 to 50 nM.

As to `Nc1ncnc2c1c(-c1ccc(Oc3ccccc3)cc1)nn2C1CCN(C2CCN(C(=O)N3CCC(CCCN4CCN(c5ccc6c(c5)CN(C5CCC(=O)NC5=O)C6=O)CC4)CC3)CC2)CC1` (stereo not drawn) [Compound 264, 3-(5-(4-(3-(1-(4-(4-amino-3-(4-phenoxyphenyl)-1H-pyrazolo[3,4-d]pyrimidin-1-yl)-[1,4′-bipiperidine]-1′-carbonyl)piperidin-4-yl)propyl)piperazin-1-yl)-1-oxoisoindolin-2-yl)piperidine-2,6-dione], the IC50 in experiment [1] lay within 1000 to 10000 nM. Further, the IC50 in experiment [2] was greater than 10000 nM. Besides, in experiment [3], the Dmax is greater than 75% and the DC50 lay in the range of 10 to 50 nM.

For the molecule `Nc1ncnc2c1c(-c1ccc(Oc3ccccc3)cc1)nn2C1CCN(C2CCN(C(=O)N3CCC(CCCC4CCN(c5ccc6c(c5)C(=O)N(C5CCC(=O)NC5=O)C6=O)CC4)CC3)CC2)CC1` (stereo not drawn) [Compound 265, 5-(4-(3-(1-(4-(4-amino-3-(4-phenoxyphenyl)-1H-pyrazolo[3,4-d]pyrimidin-1-yl)-[1,4′-bipiperidine]-1′-carbonyl)piperidin-4-yl)propyl)piperidin-1-yl)-2-(2,6-dioxopiperidin-3-yl)isoindoline-1,3-dione], in experiment [1], the IC50 lay within 1000 to 10000 nM. Besides, the IC50 in experiment [2] was 1000 to 10000 nM. In experiment [3], this molecule displayed a Dmax greater than 75% and a 50% degradation concentration (DC50) of 10 to 50 nM.

Turning to `Nc1ncnc2c1c(-c1ccc(Oc3ccccc3)cc1)nn2C1CCN(C2CCN(C(=O)N3CCC(CCCC4CCN(c5ccc6c(c5)CN(C5CCC(=O)NC5=O)C6=O)CC4)CC3)CC2)CC1` (stereo not drawn) [Compound 266, 3-(5-(4-(3-(1-(4-(4-amino-3-(4-phenoxyphenyl)-1H-pyrazolo[3,4-d]pyrimidin-1-yl)-[1,4′-bipiperidine]-1′-carbonyl)piperidin-4-yl)propyl)piperidin-1-yl)-1-oxoisoindolin-2-yl)piperidine-2,6-dione], the IC50 in experiment [1] lay within 1000 to 10000 nM. For the same molecule, in experiment [2], the IC50 is greater than 10000 nM. Also, in experiment [3], the Dmax was greater than 75% and the DC50 fell in the range of 10 to 50 nM.

As to `Nc1ncnc2c1c(-c1ccc(Oc3ccccc3)cc1)nn2C1CCN(C2CCN(C(=O)N3CCC(CCCN4CCC(c5ccc6c(c5)C(=O)N(C5CCC(=O)NC5=O)C6=O)CC4)CC3)CC2)CC1` (stereo not drawn) [Compound 267, 5-(1-(3-(1-(4-(4-amino-3-(4-phenoxyphenyl)-1H-pyrazolo[3,4-d]pyrimidin-1-yl)-[1,4′-bipiperidine]-1′-carbonyl)piperidin-4-yl)propyl)piperidin-4-yl)-2-(2,6-dioxopiperidin-3-yl)isoindoline-1,3-dione], in experiment [1], the IC50 was 1000 to 10000 nM. In addition, the IC50 in experiment [2] fell in the range of 1000 to 10000 nM. Besides, in experiment [3], the maximal degradation (Dmax) is greater than 90% and the DC50 was in the range of 10 to 50 nM.

`Nc1ncnc2c1c(-c1ccc(Oc3ccccc3)cc1)nn2C1CCN(C2CCN(C(=O)N3CCC(CCCN4CCC(c5ccc6c(c5)CN(C5CCC(=O)NC5=O)C6=O)CC4)CC3)CC2)CC1` (stereo not drawn) [Compound 268, 3-(5-(1-(3-(1-(4-(4-amino-3-(4-phenoxyphenyl)-1H-pyrazolo[3,4-d]pyrimidin-1-yl)-[1,4′-bipiperidine]-1′-carbonyl)piperidin-4-yl)propyl)piperidin-4-yl)-1-oxoisoindolin-2-yl)piperidine-2,6-dione]: the IC50 in experiment [1] is less than 1000 nM. For the same molecule, in experiment [2], the IC50 fell in the range of 1000 to 10000 nM. Further, in experiment [3], the Dmax was greater than 90% and the DC50 lay in the range of 10 to 50 nM.

With `NC(=O)c1c(-c2ccc(Oc3ccccc3)cc2)nn2c1NCCC2C1CCN(CCOCCOCCN2CCN(c3ccc4c(c3)C(=O)N(C3CCC(=O)NC3=O)C4=O)CC2)CC1` (stereo not drawn) [Compound 269, 7-(1-(2-(2-(2-(4-(2-(2,6-dioxopiperidin-3-yl)-1,3-dioxoisoindolin-5-yl)piperazin-1-yl)ethoxy)ethoxy)ethyl)piperidin-4-yl)-2-(4-phenoxyphenyl)-4,5,6,7-tetrahydropyrazolo[1,5-a]pyrimidine-3-carboxamide], in experiment [1], the IC50 is greater than 10000 nM. Besides, the IC50 in experiment [2] was greater than 10000 nM. In experiment [3], this molecule displayed a maximal degradation (Dmax) greater than 90% and a half-maximal degradation concentration (DC50) of 10 to 50 nM.

`NC(=O)c1c(-c2ccc(Oc3ccccc3)cc2)nn2c1NCCC2C1CCN(CCOCCOCCN2CCN(c3ccc4c(c3)CN(C3CCC(=O)NC3=O)C4=O)CC2)CC1` (stereo not drawn) [Compound 270, 7-(1-(2-(2-(2-(4-(2-(2,6-dioxopiperidin-3-yl)-1-oxoisoindolin-5-yl)piperazin-1-yl)ethoxy)ethoxy)ethyl)piperidin-4-yl)-2-(4-phenoxyphenyl)-4,5,6,7-tetrahydropyrazolo[1,5-a]pyrimidine-3-carboxamide]: the IC50 in experiment [1] was in the range of 1000 to 10000 nM. The IC50 in experiment [2] is greater than 10000 nM. Also, in experiment [3], the Dmax was greater than 90% and the DC50 was 10 to 50 nM.

With `NC(=O)c1c(-c2ccc(Oc3ccccc3)cc2)nn2c1NCC[C@H]2C1CCN(CCOCCOCCN2CCN(c3ccc4c(c3)C(=O)N(C3CCC(=O)NC3=O)C4=O)CC2)CC1` (stereo partly drawn) [Compound 271, (7S)-7-(1-(2-(2-(2-(4-(2-(2,6-dioxopiperidin-3-yl)-1,3-dioxoisoindolin-5-yl)piperazin-1-yl)ethoxy)ethoxy)ethyl)piperidin-4-yl)-2-(4-phenoxyphenyl)-4,5,6,7-tetrahydropyrazolo[1,5-a]pyrimidine-3-carboxamide], the IC50 in experiment [1] lay within 1000 to 10000 nM. In addition, the IC50 in experiment [2] was greater than 10000 nM. In experiment [3], the Dmax is greater than 90% and the DC50 was in the range of 10 to 50 nM.

As for `NC(=O)c1c(-c2ccc(Oc3ccccc3)cc2)nn2c1NCC[C@H]2C1CCN(CCOCCOCCN2CCN(c3ccc4c(c3)CN(C3CCC(=O)NC3=O)C4=O)CC2)CC1` (stereo partly drawn) [Compound 272, (7S)-7-(1-(2-(2-(2-(4-(2-(2,6-dioxopiperidin-3-yl)-1-oxoisoindolin-5-yl)piperazin-1-yl)ethoxy)ethoxy)ethyl)piperidin-4-yl)-2-(4-phenoxyphenyl)-4,5,6,7-tetrahydropyrazolo[1,5-a]pyrimidine-3-carboxamide], in experiment [1], the IC50 lay in the range of 1000 to 10000 nM. Moreover, the IC50 in experiment [2] was greater than 10000 nM. In experiment [3], this molecule had a Dmax greater than 90% and a DC50 of 10 to 50 nM.

For the molecule `NC(=O)c1c(-c2ccc(Oc3ccccc3)cc2)nn2c1NCCC2C1CCN(C(=O)N2CCN(CC3CCN(c4ccc5c(c4)C(=O)N(C4CCC(=O)NC4=O)C5=O)CC3)CC2)CC1` (stereo not drawn) [Compound 273, 7-(1-(4-((1-(2-(2,6-dioxopiperidin-3-yl)-1,3-dioxoisoindolin-5-yl)piperidin-4-yl)methyl)piperazine-1-carbonyl)piperidin-4-yl)-2-(4-phenoxyphenyl)-4,5,6,7-tetrahydropyrazolo[1,5-a]pyrimidine-3-carboxamide], the IC50 in experiment [1] was less than 1000 nM. In experiment [2], the IC50 lay in the range of 1000 to 10000 nM. For the same molecule, in experiment [3], the Dmax is greater than 90% and the DC50 lay in the range of 10 to 50 nM.

As for `NC(=O)c1c(-c2ccc(Oc3ccccc3)cc2)nn2c1NCCC2C1CCN(C(=O)N2CCN(CC3CCN(c4ccc5c(c4)CN(C4CCC(=O)NC4=O)C5=O)CC3)CC2)CC1` (stereo not drawn) [Compound 274, 7-(1-(4-((1-(2-(2,6-dioxopiperidin-3-yl)-1-oxoisoindolin-5-yl)piperidin-4-yl)methyl)piperazine-1-carbonyl)piperidin-4-yl)-2-(4-phenoxyphenyl)-4,5,6,7-tetrahydropyrazolo[1,5-a]pyrimidine-3-carboxamide], the IC50 in experiment [1] and in experiment [2] was less than 1000 nM each time. This molecule returned a Dmax in experiment [3] greater than 90%. In experiment [3], this molecule showed a DC50 of less than 10 nM.
